In US5081149A, “Antihepatopathic method” (Senju Pharmaceutical Co., Ltd., priority 1989, dated 1992):

What was measured:
platelet aggregation = conditions: Kokai No. 63-8337 and Japanese Patent Applications Nos. 1-79956 and 1-183484; cited from earlier work
blood coagulation = conditions: Kokai No. 63-8337 and Japanese Patent Applications Nos. 1-79956 and 1-183484; cited from earlier work
[1] = tested on: acetaminophen-induced hepatopathy; assay: Effects of DCE-GS on acetaminophen-induced hepatopathy in rats; type: in vivo, SD-strain male rats; conditions: for LDH (lactate dehydrogenase) / s-GOT / s-GPT / s-TG (serum triglyceride): 1 h before acetaminophen 300 mg/kg i.p., blood at 24 h, mean ± standard error (n = 6 to 8)
Procedure: After 24 hours of fasting, SD-strain male rats weighing 180 g were orally given 200, 400 or 800 mg/kg of S-(α, β-dicarboxyethyl)glutathione (hereinafter referred to as "DCE-GS" for short). A control group was given physiological saline. An hour later, 300 mg/kg acetaminophen was intraperitoneally administered to each rat for causing hepatopathy. Twenty-four hours after acetaminophen administration,blood samples were collected from the rats under pentobarbital anesthesia via the abdominal aorta and subjected to blood biochemistry tests.

[2] = Kokai No. 63-8337 and Japanese Patent Applications Nos. 1-79956 and 1-183484; cited from earlier work
[3] = 400 mg/kg oral, *p < 0.05 vs saline
[4] = 800 mg/kg oral, *p < 0.05 vs saline

N[C@@H](CCC(=O)N[C@@H](CSC(CC(=O)O)C(=O)O)C(=O)NCC(=O)O)C(=O)O (stereo partly drawn) [DCE-GS, S-(α, β-Dicarboxyethyl)glutathione]
platelet aggregation inhibiting activity (platelet aggregation): platelet aggregation inhibiting
blood coagulation inhibiting activity (blood coagulation): blood coagulation inhibiting
LDH (lactate dehydrogenase) ([1]; 200 mg/kg oral): 6029 ± 485 Wrobrewski units
s-GOT ([1]; 200 mg/kg oral): 1221 ± 179 IU/liter
s-GPT ([1]; 200 mg/kg oral): 499 ± 66 IU/liter
s-TG (serum triglyceride) ([1]; 200 mg/kg oral): 28.8 ± 5.0 mg/dL
s-TG (serum triglyceride) ([1]; 400 mg/kg oral): 36.1 ± 7.6 mg/dL
LDH (lactate dehydrogenase) [1, 3]: 4873 ± 973 Wrobrewski units
s-GOT [1, 3]: 677 ± 219 IU/liter
s-GPT [1, 3]: 262 ± 89 IU/liter
LDH (lactate dehydrogenase) [1, 4]: 3722 ± 595 Wrobrewski units
s-GOT [1, 4]: 438 ± 131 IU/liter
s-GPT [1, 4]: 133 ± 39 IU/liter
s-TG (serum triglyceride) [1, 4]: 53.9 ± 10.4 mg/dL
effect on acetaminophen-induced changes in s-GOT, s-GPT, s-LDH and s-TG ([1]; 200, 400 or 800 mg/kg oral): dose-dependently suppressed the increases in s-GOT, s-GPT and s-LDH as well as the decrease in s-TG
antiinflammatory and/or antiallergic activity [2]: antiinflammatory and/or antiallergic activity
